Measured values as given in patent US6620588B1, “Method of identifying inhibitors of topoisomerase DNA religation” (priority 2000, dated 2003).
pIC50: −log10 of the molar value. Where two headings read alike, the source gives them in different places.

Assays:
MCV-TOP = assay: Microtiter plate religation assay for MCV topoisomerase; format: biochemical, molluscum contagiosum virus
EU-TOPO = molecular target: T1, EU-TOPO (Bos taurus, UniProt F1MN93); format: biochemical, mammalian; conditions: for dependence of EU-TOPO inhibition on the base 3′ of the scissile phosphate: EU TG+P compared with EU TA+P substrate; for pIC50: read-out: IC50, inhibition of religation by EU-TOPO
T1 construct: purchased Gibco-BRL
T1 sequence (F1MN93 entry or part of it): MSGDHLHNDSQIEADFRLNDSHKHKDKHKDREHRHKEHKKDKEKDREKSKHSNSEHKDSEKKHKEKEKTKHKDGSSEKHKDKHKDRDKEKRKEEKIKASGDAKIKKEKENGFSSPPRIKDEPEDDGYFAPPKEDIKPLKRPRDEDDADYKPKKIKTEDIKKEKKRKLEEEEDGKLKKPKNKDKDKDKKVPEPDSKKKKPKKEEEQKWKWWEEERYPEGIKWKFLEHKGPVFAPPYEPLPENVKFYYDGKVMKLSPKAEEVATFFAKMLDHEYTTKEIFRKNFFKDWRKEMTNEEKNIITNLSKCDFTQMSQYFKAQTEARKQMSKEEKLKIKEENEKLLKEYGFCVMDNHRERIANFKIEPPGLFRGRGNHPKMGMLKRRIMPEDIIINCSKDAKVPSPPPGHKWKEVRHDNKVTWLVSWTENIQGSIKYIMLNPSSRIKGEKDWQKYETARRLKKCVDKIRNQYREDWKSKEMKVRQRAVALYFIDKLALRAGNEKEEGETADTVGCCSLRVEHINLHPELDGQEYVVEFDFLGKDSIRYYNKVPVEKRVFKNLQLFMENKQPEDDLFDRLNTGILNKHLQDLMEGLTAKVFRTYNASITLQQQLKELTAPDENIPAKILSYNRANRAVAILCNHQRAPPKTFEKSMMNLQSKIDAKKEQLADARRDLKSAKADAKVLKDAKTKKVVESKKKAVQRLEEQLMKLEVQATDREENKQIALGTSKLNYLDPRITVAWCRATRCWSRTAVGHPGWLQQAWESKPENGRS
Description: The DNA substrate was designed to contain a preferred site for topoisomerase IB action identified in Tetrahymena DNA (A. H. Andersen, E. Gocke, B. J. Bonven, O. F. Nielsen and O. Westergaard. 1985. Topoisomerase I has a strong binding preference for a conserved hexadecameric sequence in the promoter region of the rRNA gene from Tetrahymena pyriformis. Nuc. Acids Res. 13, 1543-1556; B. J. Bonven, E. Bocke and O. Westergaard. 1985. A High Affinity Topoisomerase I Binding Sequence is Clustered at DNase I Hypersensitive Sites in Tetrahymena R-Chromatin. Cell 41, 541-551).
Two orders of addition were compared. Reactions were carried out in which enzyme was preincubated with inhibitor before addition of DNA substrate (FIG. 5, “complete”), which would reveal inhibition at any step in the reaction pathway. Reactions were also carried out in which covalent complexes were formed, then inhibitor added, followed by the religation strand (FIG. 5, “religation”). The latter order of addition tested inhibition of the religation step only.
For EU-TOPO, two different substrate DNAs were tested, containing TA or TG as the bases flanking the scissile phosphate. […] 1998. Molecular Modeling Studies of the DNA-Topoisomerase I Ternary Cleavable Complex with Camptothecin. J. Med. Chem. 41, 2216-2226), so such effects were sought to be discriminated using the microtiter assay.
Standard reaction mixture for assaying EU-TOPO contains 2.5 units EU-TOPO, 2 nM substrate oligonucleotide, 20 mM Tris-Cl (pH 8.0), 72 mM KCl, 5 mM MgCl2, 5 mM DTT and 10% DMSO. EU-TOPO was obtained from Gibco-BRL. The EU-TOPO suicide substrate was based on an optimal sequence found in a Tetrahymena rRNA gene (see FIG. 2B) (A. H. Andersen, E. Gocke, B. J. Bonven, O. F. Nielsen and O. Westergaard. 1985. Topoisomerase I has a strong binding preference for a conserved hexadecameric sequence in the promoter region of the rRNA gene from Tetrahymena pyriformis. Nuc. Acids Res. 13, 1543-1556; B. J. Bonven, E. Bocke and O. Westergaard. 1985. A High Affinity Topoisomerase I Binding Sequence is Clustered at DNase I Hypersensitive Sites in Tetrahymena R-Chromatin. Cell 41, 541-551).
After the topoisomerase reactions were completed, mixtures were adjusted to 20 mM Tris-Cl (pH 8.0), 400 mM NaCl, 10 mM EDTA, and 0.1 mg/ml sonicated salmon sperm DNA in a final volume of 100 μl. 400 mM NaCl was omitted in EU-TOPO assay. The samples were added to avidin-coupled microtiter wells (Boehringer Mannheim), which were then gently agitated at room temperature for 1 hr. Unbound DNA was removed by 3 washes (200 μl, 5 min each) with 30 mM NaOH, 200 mM NaCl, 1 mM EDTA. Bound DNA was then adjusted to 10 mM Tris-Cl (pH 8.0) and 1 mM EDTA. The relative topoisomerase activity was determined using an anti-digoxigenin ELISA. Anti-digoxigenin-peroxidase Fab fragments (0.01 units, Pierce or Boehringer Mannheim) were added into wells and incubated for 1 hr at 37° C. Unbound Anti-digoxigenin peroxidase Fab fragments were removed by 5 washes (300 μl) with PBS containing 0.1% Tween 20. Bound DNA was then incubated with 200 μl of 3,3′-5,5′-tetramethylbenzidine (TMB) solution (Boehringer Mannheim) until sufficient blue product accumulated. The reaction was terminated by adding 100 μl of 1 M sulfuric acid. The resulting yellow color was quantitated at 450 nm.

| Compound | activity against MCV-TOP (MCV-TOP; FIG. 5A) | dependence of EU-TOPO inhibition on the base 3′ of the scissile phosphate (EU-TOPO) | effect on MCV-TOP (MCV-TOP; in the concentration range of the EU-TOPO IC50s (nanomolar)) | pIC50 (EU-TOPO; EU TA+P substrate (A/T base pair 3′ of the point of cleavage)) | pIC50 (EU-TOPO; EU TG+P substrate (G/C base pair 3′ of the point of cleavage)) | inhibition of MCV-TOP, religation step (MCV-TOP; inhibitor added after covalent complex formation, FIG. 5A) | inhibition of MCV-TOP, complete reaction (MCV-TOP; inhibitor added to enzyme before DNA substrate, FIG. 5A) | inhibition of EU-TOPO (EU-TOPO; FIGS. 5B and 5C) | inhibition of EU-TOPO, complete reaction compared with religation (EU-TOPO; two orders of addition) |
| --- | --- | --- | --- | --- | --- | --- | --- | --- | --- |
| CC[C@@]1(O)C(=O)OCc2c1cc1n(c2=O)Cc2cc3ccccc3nc2-1 [Camptothecin] | not active | more efficient when the 3′ base was G |  |  |  |  |  |  |  |
| (−)-epigallocatechin 3-O-gallate [EGCG] |  | far more inhibitory on the DNA substrate containing a G/C base pair 3′ of the point of cleavage | no effect | 6.30 | 7.59 |  |  |  |  |
| Coumermycin A1 |  | not sensitive |  |  |  | not religation | inhibit the complete reaction | inhibited | comparable |
